According to patent US9302999B2, “Substituted triazoles as herbicides” (E. I. DU PONT DE NEMOURS AND COMPANY, priority 2012, dated 2016):

Legend:
kochia (Kochia scoparia) = test: Test C pre-/postemergence: kochia; assay type: in vivo; conditions: Postemergence
Outline: (§1)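 Visual injury scored 0–100 (100 = complete control) against untreated controls after 13–15 greenhouse days. Surfactant-containing solvent formulations applied either to soil after sowing (loam/sand) or over 1- to 4-leaf plants, 2–18 cm tall.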

[1] = test system: crabgrass, large (large crabgrass, Digitaria sanguinalis); test: Test A pre-/postemergence: crabgrass, large; assay type: in vivo
Outline: (§2)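 Visual 0–100 injury ratings (0 no effect, 100 complete control) taken about ten days after treatment, relative to untreated controls. Preemergence treatment was a directed soil spray; postemergence plants were 2–10 cm tall at one- to two-leaf stage. Soil: loam/sand blend.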

[2] = test system: morningglory (Ipomoea spp.); test: Test A pre-/postemergence: morningglory; assay type: in vivo
Outline: as §2

soybean (Glycine max) = test: Test C pre-/postemergence: soybean; assay type: in vivo
Outline: as §1

[3] = test system: foxtail, giant (giant foxtail, Setaria faberii); test: Test A pre-/postemergence: foxtail, giant; assay type: in vivo
Outline: as §2

[4] = test system: sedge, umbrella (small-flower umbrella sedge Cyperus difformis); test: Test B flooded paddy: sedge, umbrella; assay type: in vivo; conditions: Flood, applied to paddy water at 2-leaf stage, visually evaluated after 13 to 15 days
Outline: (§3)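 Greenhouse assay lasting 13 to 15 days. Treatment was into water flooding pots 3 cm deep, at the 2-leaf stage, with that level sustained afterwards. Scores compare treated with control plants visually, 100 denoting complete control and 0 no effect; a dash marks no test result.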

[5] = test system: nutsedge, yellow (yellow nutsedge, Cyperus esculentus); test: Test C pre-/postemergence: nutsedge, yellow; assay type: in vivo
Outline: as §1

[6] = test system: ducksalad (Heteranthera limosa); test: Test B flooded paddy: ducksalad; assay type: in vivo; conditions: Flood, applied to paddy water at 2-leaf stage, visually evaluated after 13 to 15 days
Outline: as §3

[7] = test system: ragweed (common ragweed, Ambrosia elation); test: Test C pre-/postemergence: ragweed; assay type: in vivo
Outline: as §1

[8] = test system: velvetleaf (Abutilon theophrasti); test: Test C pre-/postemergence: velvetleaf; assay type: in vivo
Outline: as §1

Barnyardgrass = test: Test C preemergence: barnyardgrass; assay type: in vivo, Echinochloa crus-galli
[9] = 31 g ai/ha, scale 0 to 100 (0 no effect, 100 complete control)
[10] = 62 g ai/ha, scale 0 to 100 (0 no effect, 100 complete control)
[11] = 125 g ai/ha, scale 0 to 100, 0 no effect, 100 complete control
[12] = 250 g ai/ha, scale 0 to 100 (0 no effect, 100 complete control)
[13] = Postemergence, 125 g ai/ha, 0 to 100 scale, 0 is no effect, 100 is complete control
[14] = Postemergence, 500 g ai/ha, 0 to 100 scale, 0 is no effect, 100 is complete control
[15] = Preemergence, 125 g ai/ha, 0 to 100 scale where 0 is no effect and 100 is complete control
[16] = Preemergence, 500 g ai/ha, 0 to 100 scale (0 no effect, 100 complete control)
[17] = Postemergence, 31 g ai/ha, scale 0 to 100 (0 no effect, 100 complete control)
[18] = Postemergence, 62 g ai/ha, scale 0 to 100 (0 no effect, 100 complete control)
[19] = Postemergence, 125 g ai/ha, scale 0 to 100, 0 no effect, 100 complete control
[20] = Postemergence, 250 g ai/ha, scale 0 to 100 (0 no effect, 100 complete control)
[21] = Preemergence, 31 g ai/ha, scale 0 (no effect) to 100 (complete control)
[22] = Preemergence, 62 g ai/ha, scale of 0 to 100, 0 is no effect, 100 is complete control
[23] = Preemergence, 125 g ai/ha, scale 0 to 100, 0 no effect, 100 complete control
[24] = Preemergence, 250 g ai/ha, scale 0 to 100, 0 no effect, 100 complete control
[25] = 31 g ai/ha, scale 0 (no effect) to 100 (complete control)
[26] = 62 g ai/ha, scale of 0 to 100, 0 is no effect, 100 is complete control

CCCc1nn(-c2ccc(F)c(F)c2)nc1Oc1ccnc(C(F)(F)F)c1 [Compound 172]
0: Plant response rating, Nutsedge, Yellow [5, 21] | Plant response rating, Ducksalad (0 to 100 scale, 0 is no effect, 100 is complete control) ([6]; 250 g ai/ha)
75: Plant response rating, Sedge, Umbrella (0 to 100 scale, 0 is no effect, 100 is complete control) ([4]; 250 g ai/ha) | Plant response rating, Ragweed [7, 17] | Plant response rating, Ragweed [7, 18] | Plant response rating, Velvetleaf [8, 19] | Plant response rating, Velvetleaf [8, 22]
65: Plant response rating, Velvetleaf [8, 17] | Plant response rating, Velvetleaf [8, 18]
60: Plant response rating, Morningglory [2, 15] | Plant response rating, Soybean (soybean (Glycine max); [19]) | Plant response rating, Soybean (soybean (Glycine max); [20]) | Plant response rating, Velvetleaf [8, 21]
10: Plant response rating, Soybean (soybean (Glycine max); [22]) | Plant response rating, Soybean (soybean (Glycine max); [23]) | Plant response rating, Nutsedge, Yellow [5, 17] | Plant response rating, Nutsedge, Yellow [5, 18]
40: Plant response rating, Ragweed [7, 22]
100: Crabgrass, Large plant response rating [1, 14] | Plant response rating, Crabgrass, Large [1, 15] | Plant response rating, Crabgrass, Large [1, 16] | Plant response rating, Morningglory [2, 13] | Morningglory plant response rating [2, 14] | Plant response rating, Foxtail, Giant [3, 15] | Plant response rating, Foxtail, Giant [3, 16] | Plant response rating, Velvetleaf [8, 23] | Plant response rating, Velvetleaf [8, 24] | Plant response rating, Barnyardgrass (Barnyardgrass; [11])
98: Plant response rating, Barnyardgrass (Barnyardgrass; [26])
45: Plant response rating, Soybean (soybean (Glycine max); [18])
15: Plant response rating, Nutsedge, Yellow [5, 19] | Plant response rating, Nutsedge, Yellow [5, 20]
90: Plant response rating, Kochia (kochia (Kochia scoparia); [9]) | Plant response rating, Kochia (kochia (Kochia scoparia); [10]) | Plant response rating, Kochia (kochia (Kochia scoparia); [11]) | Plant response rating, Kochia (kochia (Kochia scoparia); [12]) | Plant response rating, Crabgrass, Large [1, 13] | Plant response rating, Foxtail, Giant [3, 13] | Foxtail, Giant plant response rating [3, 14]
85: Plant response rating, Ragweed [7, 24] | Plant response rating, Barnyardgrass (Barnyardgrass; [25])
35: Plant response rating, Soybean (soybean (Glycine max); [17]) | Plant response rating, Soybean (soybean (Glycine max); [24]) | Plant response rating, Ragweed [7, 21]
80: Plant response rating, Morningglory [2, 16] | Plant response rating, Ragweed [7, 19] | Plant response rating, Ragweed [7, 20] | Plant response rating, Ragweed [7, 23] | Plant response rating, Velvetleaf [8, 20]
5: Plant response rating, Soybean (soybean (Glycine max); [21]) | Plant response rating, Nutsedge, Yellow [5, 22] | Plant response rating, Nutsedge, Yellow [5, 23] | Plant response rating, Nutsedge, Yellow [5, 24]

CCCc1nn(-c2ccc(F)cc2F)nc1Oc1ccnc(C(F)(F)F)c1 [Compound 179]
80: Plant response rating, Kochia (kochia (Kochia scoparia); [9]) | Plant response rating, Velvetleaf [8, 23] | Plant response rating, Velvetleaf [8, 24]
35: Plant response rating, Soybean (soybean (Glycine max); [18])
10: Plant response rating, Soybean (soybean (Glycine max); [22]) | Plant response rating, Soybean (soybean (Glycine max); [23]) | Plant response rating, Nutsedge, Yellow [5, 19] | Plant response rating, Nutsedge, Yellow [5, 20]
90: Plant response rating, Kochia (kochia (Kochia scoparia); [10]) | Plant response rating, Kochia (kochia (Kochia scoparia); [11]) | Plant response rating, Kochia (kochia (Kochia scoparia); [12]) | Plant response rating, Crabgrass, Large [1, 13] | Crabgrass, Large plant response rating [1, 14] | Plant response rating, Foxtail, Giant [3, 13] | Foxtail, Giant plant response rating [3, 14]
45: Plant response rating, Soybean (soybean (Glycine max); [19]) | Plant response rating, Soybean (soybean (Glycine max); [20]) | Plant response rating, Ragweed [7, 23] | Plant response rating, Ragweed [7, 24]
75: Plant response rating, Sedge, Umbrella (0 to 100 scale, 0 is no effect, 100 is complete control) ([4]; 125 g ai/ha) | Plant response rating, Ragweed [7, 20] | Plant response rating, Velvetleaf [8, 18] | Plant response rating, Velvetleaf [8, 19] | Plant response rating, Velvetleaf [8, 20] | Plant response rating, Velvetleaf [8, 22]
5: Plant response rating, Nutsedge, Yellow [5, 17] | Plant response rating, Nutsedge, Yellow [5, 18] | Plant response rating, Nutsedge, Yellow [5, 24]
60: Plant response rating, Ragweed [7, 19]
100: Plant response rating, Crabgrass, Large [1, 15] | Plant response rating, Crabgrass, Large [1, 16] | Plant response rating, Morningglory [2, 13] | Morningglory plant response rating [2, 14] | Plant response rating, Foxtail, Giant [3, 15] | Plant response rating, Foxtail, Giant [3, 16] | Plant response rating, Barnyardgrass (Barnyardgrass; [26]) | Plant response rating, Barnyardgrass (Barnyardgrass; [11])
0: Plant response rating, Soybean (soybean (Glycine max); [21]) | Plant response rating, Nutsedge, Yellow [5, 21] | Plant response rating, Nutsedge, Yellow [5, 22] | Plant response rating, Nutsedge, Yellow [5, 23]
50: Plant response rating, Ragweed [7, 17]
70: Plant response rating, Morningglory [2, 16]
40: Plant response rating, Morningglory [2, 15] | Plant response rating, Ragweed [7, 21] | Plant response rating, Ragweed [7, 22] | Plant response rating, Barnyardgrass (Barnyardgrass; [25])
65: Plant response rating, Ducksalad (0 to 100 scale, 0 is no effect, 100 is complete control) ([6]; 125 g ai/ha)
25: Plant response rating, Soybean (soybean (Glycine max); [24])
55: Plant response rating, Ragweed [7, 18] | Plant response rating, Velvetleaf [8, 17]
30: Plant response rating, Soybean (soybean (Glycine max); [17]) | Plant response rating, Velvetleaf [8, 21]
